Measured values published in US9540355B2, “Irciniastatin analogues” (priority 2013, dated 2017).

Experiments:
[1] = test system: IMR-90 human fibroblast cells; assay: IMR-90 cytotoxicity assay; type: cell-based; conditions: IMR-90, 72 h, quiescent non-dividing cells, 0.1% FBS, 3 days incubation, read-out: IC50 (nM) Quiescent IMP-90
Description: IMR-90 Cytotoxicity Assay.
To evaluate the effect of compounds of the invention on non-proliferating normal cells, an in vitro cytotoxicity assay developed to distinguish between true antiproliferative activity and general cellular cytotoxicity unrelated to proliferation was used. Rudolph-Owen L A, Salvato K, Cheng C, Wu J, Towle M J and Littlefield B A: A 96-well plate cell-based assay to quantify undesired cytotoxic effects against quiescent non-dividing cells. Proc Amer Assoc Cancer Res 45: 264-265, 2004. In brief, IMR-90 human fibroblast cells, obtained from ATCC, were grown for 4 days to confluency in MEM containing 10% FBS and supplemented with L-glutamine, penicillin/streptomycin. After washing, the medium was replaced with complete MEM containing 0.1% FBS and the cells were cultured for 3 additional days to achieve complete quiescence. A compound of the invention or vehicle control was then added in the continued presence of 0.1% FBS, followed by incubation for 3 days at 37° C. Cell viability was assessed by the measurement of cellular ATPlevels using CellTiter-Glo reagent (Promega).

BXPC-3 = conditions: pancreas BXPC-3; cited from earlier work
MCF-7 = conditions: breast MCF-7; cited from earlier work
NCI-H460 = conditions: lung NCI-H460; cited from earlier work
KM20L2 = conditions: colon KM20L2; cited from earlier work
DU-145 = conditions: prostate DU-145; cited from earlier work
[2] = test system: human umbilical vein endothelial cells (HUVEC); conditions: normal endothelial HUVEC; cited from earlier work
HL-60(TB) = conditions: leukemia HL-60(TB); read-out: LC50 (the source's name); cited from earlier work
K-562 = conditions: leukemia K-562; read-out: LC50 (the source's name); cited from earlier work
MOLT-4 = conditions: leukemia MOLT-4; read-out: LC50 (the source's name); cited from earlier work
RPMI-8226 = conditions: leukemia RPMI-8226; read-out: LC50 (the source's name); cited from earlier work
SR = conditions: leukemia SR; read-out: LC50 (the source's name); cited from earlier work
LOX IMVI = conditions: melanoma LOX IMVI; read-out: LC50 (the source's name); cited from earlier work
SK-MEL-5 = conditions: melanoma SK-MEL-5; read-out: LC50 (the source's name); cited from earlier work
UACC-257 = conditions: melanoma UACC-257; read-out: LC50 (the source's name); cited from earlier work
UACC-62 = conditions: melanoma UACC-62; read-out: LC50 (the source's name); cited from earlier work
MCF7 = conditions: breast cancer MCF7; read-out: LC50 (the source's name); cited from earlier work
HS 578T = conditions: breast cancer HS 578T; cited from earlier work
MDA-MB-435 = conditions: breast cancer MDA-MB-435; read-out: LC50 (the source's name); cited from earlier work
NCI/ADR-RES = conditions: breast cancer NCI/ADR-RES; read-out: LC50 (the source's name); cited from earlier work
T-47D = conditions: breast cancer T-47D; read-out: LC50 (the source's name); cited from earlier work
HCC-2998 = conditions: colon cancer HCC-2998; read-out: LC50 (the source's name); cited from earlier work
HCT-116 = conditions: colon cancer HCT-116; read-out: LC50 (the source's name); cited from earlier work
HT29 = conditions: colon cancer HT29; read-out: LC50 (the source's name); cited from earlier work
SW-620 = conditions: colon cancer SW-620; read-out: LC50 (the source's name); cited from earlier work
[3] = test system: panel of 60 human cancer cell lines; conditions: cited from earlier work
[4] = test system: several solid tumor cell lines; conditions: cited from earlier work

C=C(C)C[C@H](OC)[C@H](O)C(=O)N[C@@H](OC)[C@@H]1C[C@@H](O)C(C)(C)[C@@H](C[C@H](O)[C@@H](C)[C@H]2Cc3c(C)c(O)cc(O)c3C(=O)O2)O1 [Irciniastatin A, (+)-Irciniastatin A]
IC50 [1]: 27 nM
Growth Inhibition of Cancer Cell Lines (GI50) (BXPC-3): 3.8 ng/mL
Growth Inhibition of Cancer Cell Lines (GI50) (MCF-7): 3.2 ng/mL
Growth Inhibition of Cancer Cell Lines (GI50) (NCI-H460): <0.1 ng/mL
Growth Inhibition of Cancer Cell Lines (GI50) (KM20L2): 2.7 ng/mL
Growth Inhibition of Cancer Cell Lines (GI50) (DU-145): 2.4 ng/mL
Growth Inhibition of Cancer Cell Lines (GI50) [2]: <0.5 ng/mL
CC50 (HL-60(TB)): > 25 µM
CC50 (K-562): > 25 µM
CC50 (MOLT-4): > 25 µM
CC50 (RPMI-8226): > 25 µM
CC50 (SR): > 25 µM
CC50 (LOX IMVI): > 25 µM
CC50 (SK-MEL-5): < 0.0025 µM
CC50 (UACC-257): > 25 µM
CC50 (UACC-62): < 0.0025 µM
CC50 (MCF7): > 25 µM
LC50 (HS 578T): > 25 µM
CC50 (MDA-MB-435): < 0.0025 µM
CC50 (NCI/ADR-RES): 19 µM
CC50 (T-47D): 13.6 µM
CC50 (HCC-2998): 0.36 µM
CC50 (HCT-116): < 0.0025 µM
CC50 (HT29): > 25 µM
CC50 (SW-620): > 25 µM
activity differential as compared to other cell lines within their respective subsets ([3]; MDA-MB-35, SK-MEL-28, UACC-62, HCT-116 versus other lines of the subset): greater than 10,000 fold
activities ([3]; MDA-MB-35 breast cancer, SK-MEL-28 and UACC-62 melanoma, HCT-116 colon cancer cell lines): low nanomolar range
hollow fiber assay overall score ([4]; compounds considered active score 20 or higher): 34
hollow fiber assay score against intraperitoneal fibers ([4]; intraperitoneal fibers): 28
hollow fiber assay score against subcutaneous fibers ([4]; subcutaneous fibers): 6
